Data reported in PubChem BioAssay AID248 (DTP/NCI, 2004).
Toxic doses and inconclusive results are not listed. No stated cut-off is given here; in the data, active means T/C of 150% or more; inactive means T/C below 125%. Square brackets hold non-standard residues; d marks the D form. Peptide text beside a SMILES is read from it. * marks the point of attachment. ξ: configuration not given here. ξY = NC(Cc1ccc(O)cc1)C(=O)O; Cbz = O=C(OCc1ccccc1)*; OBn = c1ccc(CO*)cc1

Test system: L1210 leukemia ip in BDF1 mice, survival T/C
Test: NCI In Vivo Anticancer Drug Screen. Data for tumor model L1210 Leukemia (intraperitoneal) in B6D2F1 (BDF1) mice
Settings: endpoint: mean survival time, higher = longer survival
Method in brief: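 Tumor cells were implanted, animals were treated, and survival was followed. The result divides the treated measurement by the vehicle-control measurement.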

[1] = dose: 100.0 mg/kg/injection, schedule: Q01DX009 (ip), vehicle: Klucel (hydroxypropylcellulose) (HPC)
[2] = dose: 200.0 mg/kg/injection, schedule: Q01DX009 (ip), vehicle: Klucel (hydroxypropylcellulose) (HPC)
[3] = dose: 100.0 mg/kg/injection, schedule: Q04DX003 (ip), vehicle: saline with Tween-80
[4] = dose: 200.0 mg/kg/injection, schedule: Q04DX003 (ip), vehicle: saline with Tween-80
[5] = dose: 400.0 mg/kg/injection, schedule: Q04DX003 (ip), vehicle: saline with Tween-80
[6] = dose: 100.0 mg/kg/injection, schedule: Q04DX003 (ip), vehicle: saline
[7] = dose: 200.0 mg/kg/injection, schedule: Q04DX003 (ip), vehicle: saline
[8] = dose: 400.0 mg/kg/injection, schedule: Q04DX003 (ip), vehicle: saline
[9] = dose: 100.0 mg/kg/injection, schedule: Q01DX001 (ip), vehicle: saline
[10] = dose: 200.0 mg/kg/injection, schedule: Q01DX001 (ip), vehicle: saline
[11] = dose: 400.0 mg/kg/injection, schedule: Q01DX001 (ip), vehicle: saline
[12] = dose: 100.0 mg/kg/injection, schedule: Q01DX009 (ip), vehicle: saline with Tween-80
[13] = dose: 200.0 mg/kg/injection, schedule: Q01DX009 (ip), vehicle: saline with Tween-80
[14] = dose: 100.0 mg/kg/injection, schedule: Q04DX003 (ip), vehicle: Klucel (hydroxypropylcellulose) (HPC)
[15] = dose: 200.0 mg/kg/injection, schedule: Q04DX003 (ip), vehicle: Klucel (hydroxypropylcellulose) (HPC)
[16] = dose: 50.0 mg/kg/injection, schedule: Q01DX001 (ip), vehicle: saline
[17] = dose: 400.0 mg/kg/injection, schedule: Q04DX003 (ip), vehicle: Klucel (hydroxypropylcellulose) (HPC)
[18] = dose: 400.0 mg/kg/injection, schedule: Q01DX009 (ip), vehicle: Klucel (hydroxypropylcellulose) (HPC)
[19] = dose: 400.0 mg/kg/injection, schedule: Q01DX009 (ip), vehicle: saline with Tween-80
[20] = dose: 50.0 mg/kg/injection, schedule: Q04DX002 (ip), vehicle: Klucel (hydroxypropylcellulose) (HPC)
[21] = dose: 100.0 mg/kg/injection, schedule: Q04DX002 (ip), vehicle: Klucel (hydroxypropylcellulose) (HPC)
[22] = dose: 200.0 mg/kg/injection, schedule: Q04DX002 (ip), vehicle: Klucel (hydroxypropylcellulose) (HPC)
[23] = dose: 50.0 mg/kg/injection, schedule: Q01DX009 (ip), vehicle: saline
[24] = dose: 100.0 mg/kg/injection, schedule: Q01DX009 (ip), vehicle: saline
[25] = dose: 200.0 mg/kg/injection, schedule: Q01DX009 (ip), vehicle: saline

Measured: T/C

Cc1ccc2ncccc2c1N (tested in a mixture with another compound)
inactive: dose: 100.0 mg/kg/injection, schedule: Q04DX003 (ip), vehicle: gum acacia 93 % of control | dose: 200.0 mg/kg/injection, schedule: Q04DX003 (ip), vehicle: gum acacia 98 % of control | dose: 400.0 mg/kg/injection, schedule: Q04DX003 (ip), vehicle: gum acacia 94 % of control

Cc1cccc(C(N)=S)n1
inactive: [1] 97 % of control | [2] 93 % of control

O=C(O)CCC(=O)Nc1ccc(Cl)cc1
inactive: [3] 97 % of control | [4] 94 % of control | [5] 86 % of control

Cc1ccc(S(=O)(=O)OCC2OCC(OC(=O)c3ccccc3)C(OC(=O)c3ccccc3)C2OC(=O)c2ccccc2)cc1 (configuration not stated)
inactive: [3] 93 % of control | [4] 93 % of control | [5] 90 % of control

NS(=O)(=O)c1c[nH]c(=O)[nH]c1=O
inactive: [6] 104 % of control | [7] 102 % of control | [8] 102 % of control

CC(C)C1CC2CCC3C(C)(C(=O)O)CCCC3(C)C2CC1CO (configuration not stated)
inactive: [3] 92 % of control | [4] 92 % of control | [5] 93 % of control

CS(=O)(=O)NC1=NCCN1[N+](=O)[O-]
inactive: dose: 10.0 mg/kg/injection, schedule: Q01DX009 (ip), vehicle: Klucel (hydroxypropylcellulose) (HPC) 88 % of control | dose: 20.0 mg/kg/injection, schedule: Q01DX009 (ip), vehicle: Klucel (hydroxypropylcellulose) (HPC) 91 % of control | dose: 20.0 mg/kg/injection, schedule: Q04DX003 (ip), vehicle: Klucel (hydroxypropylcellulose) (HPC) 98 % of control | dose: 40.0 mg/kg/injection, schedule: Q01DX009 (ip), vehicle: Klucel (hydroxypropylcellulose) (HPC) 98 % of control | dose: 40.0 mg/kg/injection, schedule: Q04DX003 (ip), vehicle: Klucel (hydroxypropylcellulose) (HPC) 101 % of control

N#CSCc1ccc(CSC#N)c(Br)c1
inactive: dose: 75.0 mg/kg/injection, schedule: Q01DX009 (ip), vehicle: saline 88 % of control

CN(C)S(=O)(=O)c1ccc(NC(=O)OC(C)(c2ccccc2)C2CCCCC2)cc1 (configuration not stated)
inactive: [9] 100 % of control | [10] 100 % of control | [11] 97 % of control

N[P+](c1ccccc1)(c1ccccc1)c1ccccc1
inactive: dose: 12.5 mg/kg/injection, schedule: Q04DX002 (ip), vehicle: Klucel (hydroxypropylcellulose) (HPC) 109 % of control | dose: 25.0 mg/kg/injection, schedule: Q04DX002 (ip), vehicle: Klucel (hydroxypropylcellulose) (HPC) 88 % of control

COc1cc(C(C)=O)cc(OC)c1Oc1cc(OC)c(OC)c(OC)c1C(C)=O
inactive: [3] 95 % of control | [4] 97 % of control | [5] 101 % of control

O=C(OC/C=C/c1ccccc1)c1ccccc1
inactive: dose: 50.0 mg/kg/injection, schedule: Q01DX009 (ip), vehicle: saline with Tween-80 97 % of control | [12] 91 % of control | [13] 91 % of control

CC(C)NS(=O)(=O)c1ccc(Cl)cc1
inactive: [14] 100 % of control | [15] 102 % of control

O=C1C2C(C(=O)N1c1ccccc1)C(c1ccccc1)N(c1ccccc1)C2c1ccccc1 (configuration not stated)
inactive: [16] 103 % of control | [9] 108 % of control | [10] 100 % of control | [11] 103 % of control

O=C(CNC(=O)OCc1ccccc1)NC(Cc1ccc(O)cc1)C(=O)OCc1ccccc1 (stereo not drawn) (Cbz-Gly-[ξY]-OBn)
inactive: [14] 96 % of control | [15] 97 % of control | [17] 91 % of control

Cc1cccc(N(CCOC(=O)Nc2cccc(Cl)c2)CCOC(=O)Nc2cccc(Cl)c2)c1
inactive: [10] 100 % of control | [11] 89 % of control

Cc1ccc(NC(N)=S)cc1
inactive: dose: 25.0 mg/kg/injection, schedule: Q04DX003 (ip), vehicle: Klucel (hydroxypropylcellulose) (HPC) 107 % of control | dose: 50.0 mg/kg/injection, schedule: Q04DX003 (ip), vehicle: Klucel (hydroxypropylcellulose) (HPC) 98 % of control | [14] 101 % of control

c1ccc(P(CCP(CCP(c2ccccc2)c2ccccc2)CCP(c2ccccc2)c2ccccc2)c2ccccc2)cc1
inactive: [1] 89 % of control | [2] 89 % of control | [18] 88 % of control

Cc1cccc(C)c1NC(=O)Nc1ccc2c(c1)OCO2
inactive: [14] 93 % of control | [15] 92 % of control | [17] 88 % of control

Cc1ccc(Oc2ccc([N+](=O)[O-])cc2[N+](=O)[O-])cc1C
inactive: dose: 222.0 mg/kg/injection, schedule: Q01DX Z (ip), vehicle: methylcellulose (MC) 90 % of control | dose: 333.0 mg/kg/injection, schedule: Q01DX Z (ip), vehicle: methylcellulose (MC) 92 % of control | dose: 500.0 mg/kg/injection, schedule: Q01DX Z (ip), vehicle: methylcellulose (MC) 92 % of control

CSc1ccc(NC(=O)Nc2ccc(S(N)(=O)=O)cc2)cc1
inactive: [12] 106 % of control | [14] 104 % of control | [13] 95 % of control | [15] 100 % of control | [19] 102 % of control | [17] 98 % of control

CCOC(=O)OCCCN(C)C
inactive: [12] 94 % of control | [3] 100 % of control | [13] 94 % of control | [4] 93 % of control | [19] 90 % of control | [5] 96 % of control

CC(C)CCCC(C)C1CCC2C3CC=C4CC(OP(=O)(N5CC5)N5CC5)CCC4(C)C3CCC12C (configuration not stated)
inactive: dose: 50.0 mg/kg/injection, schedule: Q01DX001 (sc), vehicle: steriod suspending solution 102 % of control | dose: 100.0 mg/kg/injection, schedule: Q01DX001 (sc), vehicle: steriod suspending solution 96 % of control | dose: 200.0 mg/kg/injection, schedule: Q01DX001 (sc), vehicle: steriod suspending solution 94 % of control | dose: 400.0 mg/kg/injection, schedule: Q01DX001 (sc), vehicle: steriod suspending solution 89 % of control

COc1cc2oc(C)c(C)c2cc1/C=C\[N+](=O)[O-]
inactive: [20] 96 % of control | [1] 93 % of control | [21] 93 % of control | [2] 98 % of control | [22] 96 % of control | [18] 100 % of control

COC(=O)C(Cc1ccccc1)NC(=O)C(COC1OC(COC(C)=O)C(OC(C)=O)C(OC(C)=O)C1NC(C)=O)NC(=O)OCc1ccccc1 (configuration not stated)
inactive: [20] 101 % of control | [21] 104 % of control | [22] 101 % of control

CCCCCCCCCCCCCCCCCCNC(=O)N1CC1
inactive: [12] 93 % of control | [14] 88 % of control | [13] 94 % of control | [15] 100 % of control | [19] 93 % of control | [17] 93 % of control

O=c1[nH]cnc2c1nnn2C1CC(O)C(CO)O1 (configuration not stated)
inactive: [16] 106 % of control | [9] 116 % of control | [6] 100 % of control | [7] 103 % of control | [8] 111 % of control

CNC1(C(N)=O)CCCCC1
inactive: [23] 91 % of control | [9] 102 % of control | [24] 96 % of control | [6] 100 % of control | [10] 107 % of control | [25] 106 % of control | [7] 100 % of control | [11] 104 % of control | [8] 96 % of control

O=C(NCCc1cnc[nH]1)C(F)(F)F
inactive: [23] 96 % of control | [24] 96 % of control | [25] 100 % of control

O=C(Nc1ccccc1)c1cc(Cl)ccn1
inactive: dose: 100.0 mg/kg/injection, schedule: Q01DX001 (ip), vehicle: carboxymethylcellulose (CMC) 100 % of control | dose: 200.0 mg/kg/injection, schedule: Q01DX001 (ip), vehicle: carboxymethylcellulose (CMC) 97 % of control | dose: 400.0 mg/kg/injection, schedule: Q01DX001 (ip), vehicle: carboxymethylcellulose (CMC) 97 % of control

CN(C)CCCNc1ccc(O)c2c1C(=O)c1ccccc1C2=O
inactive: [23] 100 % of control | [24] 95 % of control | [25] 106 % of control | dose: 400.0 mg/kg/injection, schedule: Q01DX009 (ip), vehicle: saline 105 % of control
